Experimental data taken from ChEMBL document CHEMBL5537137, “Design, synthesis and biological evaluation of biaryl amide derivatives against SARS-CoV-2 with dual-target mechanism” (Eur J Med Chem, 2024).

System: SARS-CoV-2
Test: microbe, parasite or virus in culture
Conditions: Severe acute respiratory syndrome coronavirus 2, IC19/2020, Vero, 48 h
Description: Antiviral activity against SARS-CoV-2 IC19/2020 infected in Vero cells assessed as inhibition of viral growth incubated for 48 hrs by plaque assay
Compound `O=C(Nc1ccc([N+](=O)[O-])cc1Cl)c1cc(Cl)ccc1O` [NICLOSAMIDE] has an EC50 of 0.4 µM.

System: Human coronavirus OC43
Test: microbe, parasite or virus in culture
Conditions: Betacoronavirus 1, A549, 96 h
Description: Antiviral activity against HCoV-OC43 infected in human A549 cells assessed as inhibition of viral growth incubated for 4 days
`Cc1ccc(NC(=O)c2ccc(CN3CCN(C)CC3)cc2)cc1Nc1nc(-c2cccnc2)cs1` [MASITINIB] gave an EC50 of 2.1 µM.

System: not listed separately
Test: in vitro
Conditions: human, NCI-H460 cells
Description: Selectivity index, ratio of CC50 for cytotoxicity against human NCI-H460 cells to EC50 for antiviral activity against HCoV-OC43 VR-1558 infected in human NCI-H460 cells
With `CN1CCN(Cc2ccc(NC(=O)c3ccc(OCCCCl)c(C(F)(F)F)c3)cc2C(F)(F)F)CC1` the selectivity ratio was 2.
Compound `CN1CCN(Cc2ccc(NC(=O)c3ccc(OCCCCl)c([N+](=O)[O-])c3)cc2C(F)(F)F)CC1` has a selectivity ratio of 6.1.
`CN1CCN(Cc2ccc(NC(=O)c3ccc(OCCCCl)c(F)c3)cc2C(F)(F)F)CC1` gave a selectivity ratio of 3.
Work on `CC(C)Oc1ccc(C(=O)Nc2ccc(CN3CCN(C)CC3)c(C(F)(F)F)c2)cc1[N+](=O)[O-]` yielded a selectivity ratio of 5.4.
`CN(C)C1CN(Cc2ccc(NC(=O)c3ccc(OCCCl)c([N+](=O)[O-])c3)cc2C(F)(F)F)C1` showed a selectivity ratio of 6.5.
`CN(C)C1CN(Cc2ccc(NC(=O)c3ccc(OCCCCl)c([N+](=O)[O-])c3)cc2C(F)(F)F)C1` gave a selectivity ratio of 6.
In the case of `CN1CCN(Cc2ccc(NC(=O)c3ccc(OCCCCl)c([N+](=O)[O-])c3)cn2)CC1`, the selectivity ratio is reported as 2.3.
Compound `CCC(=O)Nc1cc(C(=O)Nc2ccc(CN3CCN(C)CC3)c(C(F)(F)F)c2)ccc1OCCCCl` has a selectivity ratio of 4.73.
`CN1CCN(Cc2ccc(NC(=O)c3ccc(OCCCl)c([N+](=O)[O-])c3)cc2C(F)(F)F)CC1` showed a selectivity ratio of 3.5.
Compound `CN(C)C1CCN(Cc2ccc(NC(=O)c3ccc(OCCCCl)c([N+](=O)[O-])c3)cc2C(F)(F)F)C1` (stereo not given) has a selectivity ratio of 2.9.
In the case of `CC1CN(Cc2ccc(NC(=O)c3ccc(OCCCCl)c([N+](=O)[O-])c3)cc2C(F)(F)F)CC(C)O1` (stereo not given), the selectivity ratio is reported as 2.
With `CN(C)C1CCN(Cc2ccc(NC(=O)c3ccc(OCCCCl)c([N+](=O)[O-])c3)cc2C(F)(F)F)CC1` the selectivity ratio was 4.7.
In the case of `CN1CCN(Cc2ccc(NC(=O)c3ccc(OCCCCl)c([N+](=O)[O-])c3)cc2C#N)CC1`, the selectivity ratio is reported as 11.2.
With `CN1CCN(Cc2ccc(NC(=O)c3ccc(OCCCCl)c(S(N)(=O)=O)c3)cc2C(F)(F)F)CC1` the selectivity ratio was 9.8.
In the case of `CN1CCN(CCCNC(=O)C2CN(Cc3ccc(NC(=O)c4ccc(OCCCCl)c([N+](=O)[O-])c4)cc3C(F)(F)F)C2)CC1`, the selectivity ratio is reported as 3.2.
`CN(C)C1CCN(Cc2ccc(NC(=O)c3ccc(OCC4CC4)c([N+](=O)[O-])c3)cc2C(F)(F)F)CC1` showed a selectivity ratio of 11.
For `CN(C)C1CC(Oc2ccc(NC(=O)c3ccc(O)c([N+](=O)[O-])c3)cc2C(F)(F)F)C1` (stereo not given), the selectivity ratio was 7.
In the case of `CN1CCN(Cc2ccc(NC(=O)c3ccc(OCCF)c([N+](=O)[O-])c3)cc2C(F)(F)F)CC1`, the selectivity ratio is reported as 9.
With `CN(C)C1CC(Oc2ccc(NC(=O)c3ccc(OCCC(F)(F)F)c([N+](=O)[O-])c3)cc2C(F)(F)F)C1` (stereo not given) the selectivity ratio was 16.
In the case of `COc1ccc(C(=O)Nc2ccc(OC3CC(N(C)C)C3)c(C(F)(F)F)c2)cc1[N+](=O)[O-]` (stereo not given), the selectivity ratio is reported as 7.
`CN1CCN(Cc2ccc(NC(=O)c3ccc(OCCCCl)c(NS(C)(=O)=O)c3)cc2C(F)(F)F)CC1` gave a selectivity ratio of 3.
For `CN(C)C1CN(Cc2ccc(NC(=O)c3ccc(OCc4cc(C(F)(F)F)cc(C(F)(F)F)c4)c([N+](=O)[O-])c3)cc2C(F)(F)F)C1`, the selectivity ratio was < 1.7.
With `CN1CCN(Cc2ccc(NC(=O)c3ccc(F)c(C(F)(F)F)c3)cc2C(F)(F)F)CC1` the selectivity ratio was 3.
For `CN(C)C1CN(Cc2ccc(NC(=O)c3ccc(OCC(F)F)c([N+](=O)[O-])c3)cc2C(F)(F)F)C1`, the selectivity ratio was 8.

System: not listed separately
Test: Cytotoxicity against human NCI-H460 cells incubated for 72 hrs by CCK-8 assay
Conditions: not given
For `CN1CCN(Cc2ccc(NC(=O)c3ccc(OCCCCl)c(C(F)(F)F)c3)cc2C(F)(F)F)CC1`, the CC50 at 72 h was 6.2 µM.
`CN1CCN(Cc2ccc(NC(=O)c3ccc(OCCCCl)c([N+](=O)[O-])c3)cc2C(F)(F)F)CC1` gave a CC50 at 72 h of 15 µM.
For `CN1CCN(Cc2ccc(NC(=O)c3ccc(OCCCCl)c(F)c3)cc2C(F)(F)F)CC1`, the CC50 at 72 h was 13.4 µM.
Work on `CC(C)Oc1ccc(C(=O)Nc2ccc(CN3CCN(C)CC3)c(C(F)(F)F)c2)cc1[N+](=O)[O-]` yielded a CC50 at 72 h of 19.2 µM.
In the case of `CN(C)C1CN(Cc2ccc(NC(=O)c3ccc(OCCCl)c([N+](=O)[O-])c3)cc2C(F)(F)F)C1`, the CC50 at 72 h is reported as 19.2 µM.
In the case of `CN(C)C1CN(Cc2ccc(NC(=O)c3ccc(OCCCCl)c([N+](=O)[O-])c3)cc2C(F)(F)F)C1`, the CC50 at 72 h is reported as 49.8 µM.
Work on `CN1CCN(Cc2ccc(NC(=O)c3ccc(OCCCCl)c([N+](=O)[O-])c3)cn2)CC1` yielded a CC50 at 72 h of 43.7 µM.
For `CCC(=O)Nc1cc(C(=O)Nc2ccc(CN3CCN(C)CC3)c(C(F)(F)F)c2)ccc1OCCCCl`, the CC50 at 72 h was 27.1 µM.
For `CN1CCN(Cc2ccc(NC(=O)c3ccc(OCCCl)c([N+](=O)[O-])c3)cc2C(F)(F)F)CC1`, the CC50 at 72 h was 13 µM.
For `CN(C)C1CCN(Cc2ccc(NC(=O)c3ccc(OCCCCl)c([N+](=O)[O-])c3)cc2C(F)(F)F)C1` (stereo not given), the CC50 at 72 h was 28.2 µM.
Compound `CC1CN(Cc2ccc(NC(=O)c3ccc(OCCCCl)c([N+](=O)[O-])c3)cc2C(F)(F)F)CC(C)O1` (stereo not given) has a CC50 at 72 h of 4.69 µM.
In the case of `CN(C)C1CCN(Cc2ccc(NC(=O)c3ccc(OCCCCl)c([N+](=O)[O-])c3)cc2C(F)(F)F)CC1`, the CC50 at 72 h is reported as 18.5 µM.
`CN1CCN(Cc2ccc(NC(=O)c3ccc(OCCCCl)c([N+](=O)[O-])c3)cc2C#N)CC1` showed a CC50 at 72 h of 136 µM.
With `CN1CCN(Cc2ccc(NC(=O)c3ccc(OCCCCl)c(S(N)(=O)=O)c3)cc2C(F)(F)F)CC1` the CC50 at 72 h was 40.4 µM.
Work on `CN1CCN(CCCNC(=O)C2CN(Cc3ccc(NC(=O)c4ccc(OCCCCl)c([N+](=O)[O-])c4)cc3C(F)(F)F)C2)CC1` yielded a CC50 at 72 h of 59.1 µM.
In the case of `CN(C)C1CCN(Cc2ccc(NC(=O)c3ccc(OCC4CC4)c([N+](=O)[O-])c3)cc2C(F)(F)F)CC1`, the CC50 at 72 h is reported as 14.2 µM.
Compound `CN(C)C1CC(Oc2ccc(NC(=O)c3ccc(O)c([N+](=O)[O-])c3)cc2C(F)(F)F)C1` (stereo not given) has a CC50 at 72 h of 186 µM.
Work on `CN1CCN(Cc2ccc(NC(=O)c3ccc(OCCF)c([N+](=O)[O-])c3)cc2C(F)(F)F)CC1` yielded a CC50 at 72 h of 24.5 µM.
With `CN(C)C1CC(Oc2ccc(NC(=O)c3ccc(OCCC(F)(F)F)c([N+](=O)[O-])c3)cc2C(F)(F)F)C1` (stereo not given) the CC50 at 72 h was 31.3 µM.
Compound `COc1ccc(C(=O)Nc2ccc(OC3CC(N(C)C)C3)c(C(F)(F)F)c2)cc1[N+](=O)[O-]` (stereo not given) has a CC50 at 72 h of 139 µM.
`CN1CCN(Cc2ccc(NC(=O)c3ccc(OCCCCl)c(NS(C)(=O)=O)c3)cc2C(F)(F)F)CC1` gave a CC50 at 72 h of 38.5 µM.
`CN(C)C1CN(Cc2ccc(NC(=O)c3ccc(OCc4cc(C(F)(F)F)cc(C(F)(F)F)c4)c([N+](=O)[O-])c3)cc2C(F)(F)F)C1` showed a CC50 at 72 h of 5.07 µM.
With `CN1CCN(Cc2ccc(NC(=O)c3ccc(F)c(C(F)(F)F)c3)cc2C(F)(F)F)CC1` the CC50 at 72 h was 14.5 µM.
`CN(C)C1CN(Cc2ccc(NC(=O)c3ccc(OCC(F)F)c([N+](=O)[O-])c3)cc2C(F)(F)F)C1` gave a CC50 at 72 h of 34.1 µM.

System: Human coronavirus OC43
Test: microbe, parasite or virus in culture
Conditions: Betacoronavirus 1, VR-1558, NCI-H460, 72 h
Description: Antiviral activity against HCoV-OC43 VR-1558 infected in human NCI-H460 cells assessed as inhibition of viral growth incubated for 72 hrs by CCK-8 assay
In the case of `CN1CCN(Cc2ccc(NC(=O)c3ccc(OCCCCl)c(C(F)(F)F)c3)cc2C(F)(F)F)CC1`, the EC50 is reported as 2.94 µM.
For `CN1CCN(Cc2ccc(NC(=O)c3ccc(OCCCCl)c([N+](=O)[O-])c3)cc2C(F)(F)F)CC1`, the EC50 was 2.47 µM.
In the case of `CN1CCN(Cc2ccc(NC(=O)c3ccc(OCCCCl)c(F)c3)cc2C(F)(F)F)CC1`, the EC50 is reported as 5.34 µM.
For `CC(C)Oc1ccc(C(=O)Nc2ccc(CN3CCN(C)CC3)c(C(F)(F)F)c2)cc1[N+](=O)[O-]`, the EC50 was 3.54 µM.
`CN(C)C1CN(Cc2ccc(NC(=O)c3ccc(OCCCl)c([N+](=O)[O-])c3)cc2C(F)(F)F)C1` showed an EC50 of 2.97 µM.
Work on `CN(C)C1CN(Cc2ccc(NC(=O)c3ccc(OCCCCl)c([N+](=O)[O-])c3)cc2C(F)(F)F)C1` yielded an EC50 of 8.64 µM.
`CN1CCN(Cc2ccc(NC(=O)c3ccc(OCCCCl)c([N+](=O)[O-])c3)cn2)CC1` showed an EC50 of 19.2 µM.
`CCC(=O)Nc1cc(C(=O)Nc2ccc(CN3CCN(C)CC3)c(C(F)(F)F)c2)ccc1OCCCCl` gave an EC50 of 5.74 µM.
With `CN1CCN(Cc2ccc(NC(=O)c3ccc(OCCCl)c([N+](=O)[O-])c3)cc2C(F)(F)F)CC1` the EC50 was 3.73 µM.
`CN(C)C1CCN(Cc2ccc(NC(=O)c3ccc(OCCCCl)c([N+](=O)[O-])c3)cc2C(F)(F)F)C1` (stereo not given) gave an EC50 of 9.76 µM.
For `CC1CN(Cc2ccc(NC(=O)c3ccc(OCCCCl)c([N+](=O)[O-])c3)cc2C(F)(F)F)CC(C)O1` (stereo not given), the EC50 was 2.49 µM.
`CN(C)C1CCN(Cc2ccc(NC(=O)c3ccc(OCCCCl)c([N+](=O)[O-])c3)cc2C(F)(F)F)CC1` showed an EC50 of 3.93 µM.
For `CN1CCN(Cc2ccc(NC(=O)c3ccc(OCCCCl)c([N+](=O)[O-])c3)cc2C#N)CC1`, the EC50 was 12.1 µM.
With `CN1CCN(Cc2ccc(NC(=O)c3ccc(OCCCCl)c(S(N)(=O)=O)c3)cc2C(F)(F)F)CC1` the EC50 was 4.11 µM.
Compound `CN1CCN(CCCNC(=O)C2CN(Cc3ccc(NC(=O)c4ccc(OCCCCl)c([N+](=O)[O-])c4)cc3C(F)(F)F)C2)CC1` has an EC50 of 18.6 µM.
Compound `CN(C)C1CCN(Cc2ccc(NC(=O)c3ccc(OCC4CC4)c([N+](=O)[O-])c3)cc2C(F)(F)F)CC1` has an EC50 of 1.24 µM.
`CN(C)C1CC(Oc2ccc(NC(=O)c3ccc(O)c([N+](=O)[O-])c3)cc2C(F)(F)F)C1` (stereo not given) gave an EC50 of 27.2 µM.
`CN1CCN(Cc2ccc(NC(=O)c3ccc(OCCF)c([N+](=O)[O-])c3)cc2C(F)(F)F)CC1` gave an EC50 of 2.64 µM.
In the case of `CN(C)C1CC(Oc2ccc(NC(=O)c3ccc(OCCC(F)(F)F)c([N+](=O)[O-])c3)cc2C(F)(F)F)C1` (stereo not given), the EC50 is reported as 2.01 µM.
With `COc1ccc(C(=O)Nc2ccc(OC3CC(N(C)C)C3)c(C(F)(F)F)c2)cc1[N+](=O)[O-]` (stereo not given) the EC50 was 19.5 µM.
`CN1CCN(Cc2ccc(NC(=O)c3ccc(OCCCCl)c(NS(C)(=O)=O)c3)cc2C(F)(F)F)CC1` gave an EC50 of 12.8 µM.
With `CN(C)C1CN(Cc2ccc(NC(=O)c3ccc(OCc4cc(C(F)(F)F)cc(C(F)(F)F)c4)c([N+](=O)[O-])c3)cc2C(F)(F)F)C1` the EC50 was > 3.13 µM.
For `CN1CCN(Cc2ccc(NC(=O)c3ccc(F)c(C(F)(F)F)c3)cc2C(F)(F)F)CC1`, the EC50 was 4.15 µM.
`CN(C)C1CN(Cc2ccc(NC(=O)c3ccc(OCC(F)F)c([N+](=O)[O-])c3)cc2C(F)(F)F)C1` gave an EC50 of 4.51 µM.

System: not listed separately
Test: Cytotoxicity against human Huh7.5 cells
Conditions: not given
`CN(C)C1CN(Cc2ccc(NC(=O)c3ccc(OCCCl)c([N+](=O)[O-])c3)cc2C(F)(F)F)C1` gave a CC50 of 6.47 µM.
